Results from patent publication US20260355318A1, “MOLECULAR MACHINES FOR TREATMENT OF CANCER, FUNGAL INFECTIONS, OR BACTERIAL INFECTIONS” (priority 2022, published 2026).
In brackets after ≈: the same amount, converted by molar mass.

Legend:
C. albicans = assay: MIC, visible-light-activated MMs and conventional antifungals, C. albicans; format: cell-based, Candida albicans (ATCC 18804); details: Candida albicans, read-out: MIC of antifungal agent
Outline: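 C. albicans suspensions (~10^4 CFU/mL in saline, CLSI) incubated 30 min in the dark with MMs, then irradiated with stirring at 405 nm, 292 mW cm^−2 for 5 min (87.6 J cm^−2). Cells then grown in MOPS-buffered RPMI 1640 (pH 7.0) at 30 °C for 48 h; MIC is lowest concentration with no visible growth; conventional antifungals tested likewise.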

T. rubrum = assay: MIC, MMs and antifungals, T. rubrum; format: cell-based, Trichophyton rubrum (ATCC 10218); details: Trichophyton rubrum, read-out: MIC of antifungal agent
Method: Cell suspensions for susceptibility testing (MMs and conventional antifungals) were prepared per the Clinical & Laboratory Standards Institute (CLSI) guidelines (CLSI, 2017; CLSI, 2008). Before testing, yeasts (C. albicans and S. cerevisiae) were sub-cultured in Sabouraud Dextrose Agar-Emmons Modification (SDAE) plates and grown for 24 h at 30 °C. Five independent colonies from 24-h-old plates were collected and diluted to ~10^4 colony forming units (CFU) per mL in sterile saline (CLSI, 2017). Molds (A. fumigatus and the dermatophytes T. rubrum and M. gypseum) were sub-cultured on SDAE medium and incubated for 7 days at 28 °C. Conidia were recovered by covering the plates with sterile distilled water and scraping the colonies. The suspensions were filtered (8-μm pore size) and diluted in saline to ~10^4 CFU mL^−1 (Santos and Hamdan, 2005).
After a 30-min incubation in the dark, cell suspensions were transferred to small, sterilized glass beakers, which were then placed in a water bath. Each sample was irradiated with 405-nm light at 292 mW cm^−2 for 5 min, corresponding to a light dose of 87.6 J cm^−2, determined using an S415C thermal power sensor (Thorlabs, Newton, MA, USA). During irradiation, the cell suspensions were agitated with a small metal stirrer. […]

A. baumannii [1] = assay: G. mellonella burn wound infection model, A. baumannii; format: in vivo, Galleria mellonella; details: A. baumannii-infected G. mellonella, 1×MIC
Method: (§1) Animal studies were conducted in the burn wound model Galleria mellonella recently described (Maslova et al., 2020). […] Larvae were sorted into Petri dishes lined with Whatman filter paper (Fisher Scientific, Pittsburgh, PA) and stored at 4 ° C until use. The larval bodies were sterilized with 70% ethanol. The burn was generated using a soldering iron (Weller WE1010 ESD-Safe Digital 70-Watt Soldering Station, 120V, Weller Company, Easton, PA, USA) to achieve a consistent burn area of ≈2 mm^2 in the middle section of the back of larvae. This location was chosen so the wound could be easily visualized without having to physically manipulate the larvae. Immediately post-burn, the wound was inoculated with 10 μL of 1:10 dilution of an overnight culture of A. baumannii or S. aureus. […] In order to minimize any potential temperature effects, a constant flow of 0.2 μm pore-size-filtered air was provided to the surface of the worm. Dark 1% DMSO controls were also included. The mortality of larvae post-treatment was monitored for up to 7 days. Mortality was recorded by complete melanization of the larval body and complete loss of motility. A brief overview of the protocol is schematically depicted in FIG. 44A. Work in Galleria mellonella was reviewed and approved by the Office of Sponsored Projects and Research Compliance (SPARC) of Rice University.

A. baumannii [2] = assay: MIC, A. baumannii; format: cell-based, Acinetobacter baumannii; details: A. baumannii, broth microdilution
Method: (§2) The appropriate volume of an MM stock at 8 mM necessary to achieve a concentration ranging from 0.3125 to 40 μM was pipetted into a 2 mL microcentrifuge tube to which 1 mL of cell suspension prepared as previously described was added. Corresponding negative controls (DMSO only) were prepared in the same way. The mixture was gently mixed by pipetting and incubated in the dark at 30 or 37 ° C, depending on the strain, for 30 min with agitation (220 rpm). Afterward, MM- or DMSO-treated cells were dispensed in one well of a 24-well plate positioned in the center of the light beam (405 nm LED Light, Prizmatix, UHP—F-5-405) placed at the appropriate distance necessary to achieve the desired light intensity of 304 mW cm-2, 146 mW cm2 or 87 mW cm2, as measured with a handheld digital power meter console coupled to an S415C thermal power sensor head (Thorlabs, Newton, MA, USA). The temperature during irradiation was monitored using a thermocouple probe (Model SC-TT-K-30-36-PP; Omega Engineering, Inc., Stanford, CT, USA). Samples were agitated during irradiation. Dark controls were prepared as previously described except that no irradiation was provided.
(§3) For MIC determination, samples treated with a range of concentrations of the different MM, as described above and were irradiated one at a time for 5 min at 146 mW cm^−2 (43.8 J cm^−2), after which irradiated aliquots were collected and inoculated into 1 mL MHB in a 2 mL microcentrifuge tube. Samples were incubated overnight at 30 or 37 ° C, depending on the strain, without agitation. Corresponding non-irradiated samples and negative controls (without bacteria) were also included. The following day, cultures were inspected for growth and the MIC was identified. The experimental procedure used to determine the MIC of visible light-activated MMs is schematically depicted in FIG. 26.

[3] = test system: biofilms of P. aeruginosa and S. aureus; assay: Biofilm total bacterial cell number (acridine orange); format: cell-based, Pseudomonas aeruginosa, Staphylococcus aureus; details: 2×MIC, vs untreated controls
Method: (§4) This combination of methods is effective at evaluating the antibiofilm potential of chemicals (Stiefel et al., 2016). P. aeruginosa and S. aureus were grown overnight in tryptic soy broth (TSB) medium. The overnight cultures were diluted in 1:100 in fresh media and 100 μL aliquots were distributed in a 96-well plate. After 24 h of static growth at 37 ° C, planktonic cells were removed by inverting the plate onto a stack of paper towels, and the biofilm was washed three times with PBS. After washing, MM 1, MM 5, or MM 6 were added at 2×MIC to the biofilm and incubated statically in the dark for 60 min. The biofilm was then irradiated for 15, 30, or 45 min at 146 mW cm2. For the determination of the total bacterial number, acridine orange solution (2% in H2O) diluted 1:100 in Walpole's buffer (27.2 g L-1 sodium acetate trihydrate, adjusted to pH 4 with glacial acetic acid) was added to the wells.

S. aureus [4] = assay: G. mellonella burn wound infection model, S. aureus; format: in vivo, Galleria mellonella; details: S. aureus-infected G. mellonella, 1×MIC
Method: as §1

S. aureus [5] = assay: MIC, S. aureus; format: cell-based, Staphylococcus aureus; details: Staphylococcus aureus, read-out: Antibiotic MIC
Method: as §2, §3

[6] = test system: biofilms of P. aeruginosa and S. aureus; assay: Biofilm metabolically active cells (ATP); format: cell-based, Pseudomonas aeruginosa, Staphylococcus aureus; details: 2×MIC, antibiotics 45 min, MMs 15 min + light, vs untreated
Method: as §4
For quantification of viable cells in biofilms, following the addition of 100 μL […] of TSB to each well, bacteria were detached from the biofilm by thorough mixing, after which […] of BacTiter-Glo™ reagent, prepared according to the manufacturer's instructions, was added to each well.

`Cc1cc(C2CCCCC2)n(O)c(=O)c1` [Ciclopirox (CPX), Ciclopirox] showed an MIC (C. albicans) of 1 µg/mL and an MIC (T. rubrum) of 0.5 µg/mL.
For Polymyxin B [reference compound], the “mortality after 7 days” value (A. baumannii [1]) was 69% and the “Antibiotic MIC” value (A. baumannii [2]) was 0.125 μg per mL.
In the case of `NC[C@H]1O[C@H](O[C@H]2[C@H](O)[C@@H](O[C@H]3O[C@H](CO)[C@@H](O)[C@H](N)[C@H]3O)[C@H](N)C[C@@H]2N)[C@H](N)C[C@@H]1O` [Tobramycin], the “reduction in total bacterial cell number in biofilm” value [3] is reported as “up to 43%”, the “mortality after 7 days” value (S. aureus [4]) is reported as 33% and the MIC (S. aureus [5]) is reported as 4 µg/mL (≈ 8.56 µM). The “reduction in metabolically active cells in biofilm” value [6] was 27%.
